Series [1] deals with recurrent Meduloblastoma.
Protocol: They also had high-grade fever. The chemotherapy was stopped for a week and given a blood transfusion and stabilized the patient. In the second leg the patient was then put on FORN mediated metronomic chemotherapy upon the request of their parent.
During the FORN break period, as advised by the patient's treating oncologist, the patient continued the chemotherapy without FORN. Thus during the third leg the patient took chemotherapy without FORN. […] Another transfusion of blood was conducted.
During the third leg of the trial, the cytotoxic drugs were continued to be administered, without the use of FORN.
Series [2] deals with protein kinase C (PKC). Conditions: cited from earlier work.
The subject of series [3] is lipoxygenase. Conditions: cited from earlier work.
In series [4] the test system is head and neck tumor cell lines. Conditions: Clin. Cancer Res. 2005; 11(19); cited from earlier work.
Series [5] deals with IkB kinase. Conditions: cited from earlier work.
In series [6] the test system is cycloxygenase. Conditions: cited from earlier work.
Series [7] deals with inducible nitric oxide synthase (iNOS) (Homo sapiens, UniProt P35228). Conditions: cited from earlier work.
The test system of series [8] is cancer cells. Conditions: cited from earlier work.
The test system of series [9] is peripheral blood monocytes and alveolar macrophages. Conditions: cited from earlier work.

Each structure is given as a SMILES string. Like-named read-outs stand apart in the source and are kept apart here.

Chain of inducible nitric oxide synthase (iNOS) (P35228 whole entry, species assumed): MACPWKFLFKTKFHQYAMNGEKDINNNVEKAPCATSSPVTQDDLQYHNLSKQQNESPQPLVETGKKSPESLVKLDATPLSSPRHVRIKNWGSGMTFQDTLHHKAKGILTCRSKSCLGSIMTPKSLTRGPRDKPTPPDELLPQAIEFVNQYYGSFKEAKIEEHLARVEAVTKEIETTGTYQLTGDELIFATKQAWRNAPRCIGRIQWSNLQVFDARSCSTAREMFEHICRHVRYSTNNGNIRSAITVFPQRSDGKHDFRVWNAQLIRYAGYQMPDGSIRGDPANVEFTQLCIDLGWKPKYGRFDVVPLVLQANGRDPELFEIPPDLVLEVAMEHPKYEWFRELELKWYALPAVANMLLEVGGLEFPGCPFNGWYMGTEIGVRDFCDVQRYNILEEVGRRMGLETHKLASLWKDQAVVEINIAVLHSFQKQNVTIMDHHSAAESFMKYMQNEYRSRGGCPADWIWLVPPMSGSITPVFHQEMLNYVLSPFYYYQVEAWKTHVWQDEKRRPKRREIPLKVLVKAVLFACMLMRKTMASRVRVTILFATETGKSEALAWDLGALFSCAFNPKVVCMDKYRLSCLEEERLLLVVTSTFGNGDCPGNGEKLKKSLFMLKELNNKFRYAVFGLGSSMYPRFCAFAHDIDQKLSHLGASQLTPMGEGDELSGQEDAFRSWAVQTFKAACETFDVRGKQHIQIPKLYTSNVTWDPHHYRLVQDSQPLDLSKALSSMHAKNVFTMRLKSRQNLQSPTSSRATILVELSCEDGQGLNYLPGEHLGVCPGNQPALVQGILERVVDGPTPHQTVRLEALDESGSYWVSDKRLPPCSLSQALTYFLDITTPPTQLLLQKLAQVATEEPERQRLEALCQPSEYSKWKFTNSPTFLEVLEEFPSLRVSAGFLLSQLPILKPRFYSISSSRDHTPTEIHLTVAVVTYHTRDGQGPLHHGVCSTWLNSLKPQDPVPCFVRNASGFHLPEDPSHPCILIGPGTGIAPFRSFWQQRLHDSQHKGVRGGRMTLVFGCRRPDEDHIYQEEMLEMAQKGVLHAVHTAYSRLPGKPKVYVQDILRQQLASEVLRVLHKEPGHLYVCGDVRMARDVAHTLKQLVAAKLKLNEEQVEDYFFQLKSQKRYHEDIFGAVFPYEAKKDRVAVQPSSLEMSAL

As for `O=P1(N(CCCl)CCCl)NCCCO1` (stereo not shown) [Cyclophosphamide], the “bone marrow / blood counts” value in series [1] (first leg, without FORN, metronomic mode with three anti angiogenic drugs, after 2 weeks) is “severe bone marrow depression”.
For the molecule `COc1cc(/C=C/C(=O)CC(=O)/C=C/c2ccc(O)c(OC)c2)ccc1O` [Curcumin], the “inhibition of phorbol ester induced PKC activity” value in series [2] is “inhibits”. Moreover, the inhibition of lipoxygenase result in series [3] was “inhibits”. Further, the “growth of tumor cell lines” value in series [4] is listed as “suppresses growth”. Besides, the “inhibition of IkB kinase” value in series [5] was “potent inhibitor”. For the same molecule, the inhibition of cycloxygenase entry in series [6] is on record as “inhibits”. Further, the “inhibition of iNOS” value in series [7] is “inhibits”. Also, in [8], the “apoptosis (programmed cell death)” value is on record as “induce apoptosis”. Also, in [9], the “production of inflammatory cytokines” value is “inhibit production”.
On to `COc1cc([C@@H]2c3cc4c(cc3[C@@H](O[C@@H]3O[C@@H]5CO[C@@H](C)O[C@H]5[C@H](O)[C@H]3O)[C@H]3COC(=O)[C@H]23)OCO4)cc(OC)c1O` [VP 16, Etoposide], for which the “bone marrow / blood counts” value in [1] (human, in vivo) is listed as “severe bone marrow depression”.

The values are drawn from patent US9616245B2, “Method of treating cells with drug and radiation according to proton density” (priority 2009, dated 2017).
